{"source": "paper PMC5218480", "about": "(PLoS ONE, 2017)", "system": "MV-4-11 cells", "assay": "Gene expression microarray analysis (Affymetrix PrimeView) and GSEA", "format": "cell-based, human", "design": "RFU PODN (11730768_x_at) / Fold change /veh PODN (11730768_x_at) / RFU LINC00158 (11744669_a_at) / Fold change /veh LINC00158 (11744669_a_at) / RFU DUSP10 (11751237_a_at) / Fold change /veh DUSP10 (11751237_a_at) / RFU ID3 (11757404_x_at) / Fold change /veh ID3 (11757404_x_at) / RFU PLEKHG5 (11737974_s_at) / Fold change /veh PLEKHG5 (11737974_s_at) / RFU LRRC4B (11730491_at) / Fold change /veh LRRC4B (11730491_at) / RFU GIMAP4 (11747438_a_at) / Fold change /veh GIMAP4 (11747438_a_at) / RFU KRT8 (11758183_x_at) / Fold change /veh KRT8 (11758183_x_at) / RFU CNN1 (11734310_a_at) / Fold change /veh CNN1 (11734310_a_at) / RFU VPS37D (11726825_at) / Fold change /veh VPS37D (11726825_at) / RFU C10orf10 (11716522_x_at) / Fold change /veh C10orf10 (11716522_x_at) / RFU KIR2DL2 /// KIR2DL4 /// KIR2DL5A /// KIR2DL5B /// KIR2DS1 /// KIR2DS2 /// KIR2DS3 /// KIR2DS4 /// KIR3DL3 /// KIR3DL3 /// KIR3DS1 (11738374_at) / Fold change /veh KIR2DL2 /// KIR2DL4 /// KIR2DL5A /// KIR2DL5B /// KIR2DS1 /// KIR2DS2 /// KIR2DS3 /// KIR2DS4 /// KIR3DL3 /// KIR3DL3 /// KIR3DS1 (11738374_at) / RFU C1QL1 (11718748_at) / Fold change /veh C1QL1 (11718748_at) / RFU TMPRSS4 (11747572_a_at) / Fold change /veh TMPRSS4 (11747572_a_at) / RFU HAMP (11756126_x_at) / Fold change /veh HAMP (11756126_x_at) / RFU RNFT2 (11725882_a_at) / Fold change /veh RNFT2 (11725882_a_at) / RFU NR4A2 (11747474_a_at) / Fold change /veh NR4A2 (11747474_a_at) / RFU ABCC12 (11746883_a_at) / Fold change /veh ABCC12 (11746883_a_at) / RFU TMEM136 (11760407_x_at) / Fold change /veh TMEM136 (11760407_x_at) / RFU CLDN22 /// WWC2 (11732394_at) / Fold change /veh CLDN22 /// WWC2 (11732394_at) / RFU HLA-DPB1 (11760878_x_at) / Fold change /veh HLA-DPB1 (11760878_x_at) / RFU SPINT1 (11716480_a_at) / Fold change /veh SPINT1 (11716480_a_at) / RFU GAP43 (11754022_s_at) / Fold change /veh GAP43 (11754022_s_at) / RFU A4GNT (11735810_at) / Fold change /veh A4GNT (11735810_at) / RFU PRB3 (11715151_x_at) / Fold change /veh PRB3 (11715151_x_at) / RFU TUBB4B (11761932_at) / Fold change /veh TUBB4B (11761932_at) / RFU CAPN14 (11732068_a_at) / Fold change /veh CAPN14 (11732068_a_at) / RFU TMCC2 (11721928_a_at) / Fold change /veh TMCC2 (11721928_a_at) / RFU IRGQ (11745062_a_at) / Fold change /veh IRGQ (11745062_a_at) / RFU FAM174B (11720279_a_at) / Fold change /veh FAM174B (11720279_a_at) / RFU TMPRSS4 (11748680_a_at) / Fold change /veh TMPRSS4 (11748680_a_at) / RFU FAM212B (11763350_a_at) / Fold change /veh FAM212B (11763350_a_at) / RFU PLEKHG5 (11743358_a_at) / Fold change /veh PLEKHG5 (11743358_a_at) / RFU ZSCAN30 (11745921_a_at) / Fold change /veh ZSCAN30 (11745921_a_at) / RFU CMKLR1 (11741424_a_at) / Fold change /veh CMKLR1 (11741424_a_at) / RFU LOC101060620 /// MAPK8IP1 (11723275_at) / Fold change /veh LOC101060620 /// MAPK8IP1 (11723275_at) / RFU SPTSSB (11747773_x_at) / Fold change /veh SPTSSB (11747773_x_at) / RFU PRSS12 (11739890_at) / Fold change /veh PRSS12 (11739890_at) / RFU BIN1 (11741810_x_at) / Fold change /veh BIN1 (11741810_x_at) / RFU WNT11 (11732464_a_at) / Fold change /veh WNT11 (11732464_a_at) / RFU C10orf10 (11716521_a_at) / Fold change /veh C10orf10 (11716521_a_at) / RFU C5orf56 (11738089_at) / Fold change /veh C5orf56 (11738089_at) / RFU CYB561 (11721691_x_at) / Fold change /veh CYB561 (11721691_x_at) / RFU ANKRD19P (11752326_a_at) / Fold change /veh ANKRD19P (11752326_a_at) / RFU OR2T12 /// OR2T33 /// OR2T8 (11738714_s_at) / Fold change /veh OR2T12 /// OR2T33 /// OR2T8 (11738714_s_at) / RFU VCAN (11748164_a_at) / Fold change /veh VCAN (11748164_a_at) / RFU JSRP1 (11732532_at) / Fold change /veh JSRP1 (11732532_at) / RFU KRTAP10-11 (11738290_x_at) / Fold change /veh KRTAP10-11 (11738290_x_at) / RFU MYO3A (11730013_a_at) / Fold change /veh MYO3A (11730013_a_at) / RFU EBF3 (11725865_a_at) / Fold change /veh EBF3 (11725865_a_at) / RFU CAMK2N1 (11719241_x_at) / Fold change /veh CAMK2N1 (11719241_x_at) / RFU C5orf56 (11738088_a_at) / Fold change /veh C5orf56 (11738088_a_at) / RFU OLFML3 (11715873_a_at) / Fold change /veh OLFML3 (11715873_a_at) / RFU LOC100653217 /// NTM (11731650_a_at) / Fold change /veh LOC100653217 /// NTM (11731650_a_at) / RFU MAPK11 (11762145_a_at) / Fold change /veh MAPK11 (11762145_a_at) / RFU FIZ1 (11724087_x_at) / Fold change /veh FIZ1 (11724087_x_at) / RFU OASL (11726364_x_at) / Fold change /veh OASL (11726364_x_at) / RFU SOX15 (11748057_x_at) / Fold change /veh SOX15 (11748057_x_at) / RFU CD79A (11719716_a_at) / Fold change /veh CD79A (11719716_a_at) / RFU HIST1H1D (11736915_at) / Fold change /veh HIST1H1D (11736915_at) / RFU CASKIN2 (11723855_a_at) / Fold change /veh CASKIN2 (11723855_a_at) / RFU LOC730098 (11760151_x_at) / Fold change /veh LOC730098 (11760151_x_at) / RFU OR4N2 (11742367_at) / Fold change /veh OR4N2 (11742367_at) / RFU PRRT2 (11749266_a_at) / Fold change /veh PRRT2 (11749266_a_at) / RFU SNX32 (11753110_a_at) / Fold change /veh SNX32 (11753110_a_at) / RFU CDHR5 (11726645_a_at) / Fold change /veh CDHR5 (11726645_a_at) / RFU RCAN1 (11760418_a_at) / Fold change /veh RCAN1 (11760418_a_at) / RFU FAM167A (11723789_a_at) / Fold change /veh FAM167A (11723789_a_at) / RFU FAM26E (11764081_at) / Fold change /veh FAM26E (11764081_at) / RFU ISYNA1 (11749810_s_at) / Fold change /veh ISYNA1 (11749810_s_at) / RFU ACY1 (11761880_at) / Fold change /veh ACY1 (11761880_at) / RFU 11764098_at / Fold change /veh 11764098_at / RFU SAMD14 (11745864_x_at) / Fold change /veh SAMD14 (11745864_x_at) / RFU NPB (11741838_a_at) / Fold change /veh NPB (11741838_a_at) / RFU TMPRSS6 (11731388_a_at) / Fold change /veh TMPRSS6 (11731388_a_at) / RFU KRTAP10-2 (11738614_at) / Fold change /veh KRTAP10-2 (11738614_at) / RFU ARHGAP8 /// PRR5-ARHGAP8 (11727945_x_at) / Fold change /veh ARHGAP8 /// PRR5-ARHGAP8 (11727945_x_at) / RFU KRTAP5-7 /// NADSYN1 (11734609_at) / Fold change /veh KRTAP5-7 /// NADSYN1 (11734609_at) / RFU RASL12 (11751679_a_at) / Fold change /veh RASL12 (11751679_a_at) / RFU CDKN2B (11736163_a_at) / Fold change /veh CDKN2B (11736163_a_at) / RFU PRF1 (11729649_at) / Fold change /veh PRF1 (11729649_at) / RFU, ZNF638 /// ZNF638-IT1 / Fold change vs veh, ZNF638 /// ZNF638-IT1 / RFU, PANK3 / Fold change vs veh, PANK3 / RFU, SH3YL1 / Fold change vs veh, SH3YL1 / RFU, ZEB2 / Fold change vs veh, ZEB2 / RFU, NRIP1 / Fold change vs veh, NRIP1 / RFU, PTTG1IP / Fold change vs veh, PTTG1IP / RFU, CAPN2 / Fold change vs veh, CAPN2 / RFU, MED14 / Fold change vs veh, MED14 / RFU, SNORA58 / Fold change vs veh, SNORA58 / RFU, C1orf63 / Fold change vs veh, C1orf63 / RFU, LRRFIP1 / Fold change vs veh, LRRFIP1 / RFU, NDUFAF7 / Fold change vs veh, NDUFAF7 / RFU, SLC12A2 / Fold change vs veh, SLC12A2 / RFU, IBTK / Fold change vs veh, IBTK / RFU, ESF1 / Fold change vs veh, ESF1 / Fold change vs veh, TMEM50B / RFU, TAOK1 / Fold change vs veh, TAOK1 / RFU, ACBD3 / Fold change vs veh, ACBD3 / RFU, TMA16 / Fold change vs veh, TMA16 / RFU, RWDD3 / Fold change vs veh, RWDD3 / RFU, BCAT1 / Fold change vs veh, BCAT1 / RFU, EDEM3 / Fold change vs veh, EDEM3 / RFU, TMEM33 / Fold change vs veh, TMEM33 / RFU, WDR75 / Fold change vs veh, WDR75 / RFU, AHCTF1 / Fold change vs veh, AHCTF1 / RFU, TFRC / Fold change vs veh, TFRC / RFU, ZDHHC17 / Fold change vs veh, ZDHHC17 / RFU, NOM1 / Fold change vs veh, NOM1 / RFU, ARL8B / Fold change vs veh, ARL8B / RFU, ZBTB11 / Fold change vs veh, ZBTB11 / RFU, TAMM41 / Fold change vs veh, TAMM41 / RFU, KIAA1704 /// LOC100996395 / Fold change vs veh, KIAA1704 /// LOC100996395 / RFU, ING1 / Fold change vs veh, ING1 / RFU, TRMT61B / Fold change vs veh, TRMT61B / RFU, FUBP3 / Fold change vs veh, FUBP3 / RFU, TP53 / Fold change vs veh, TP53 / RFU, TNKS2 / Fold change vs veh, TNKS2 / RFU, ZFP14 / Fold change vs veh, ZFP14 / RFU, ACTR2 / Fold change vs veh, ACTR2 / RFU, PPP3R1 / Fold change vs veh, PPP3R1 / RFU, PIK3R1 / Fold change vs veh, PIK3R1 / RFU, HNRNPA1 / Fold change vs veh, HNRNPA1 / RFU, RNF170 / Fold change vs veh, RNF170 / RFU, ZNF28 / Fold change vs veh, ZNF28 / RFU, RNGTT / Fold change vs veh, RNGTT / RFU, OGT / Fold change vs veh, OGT / RFU, BRD1 / Fold change vs veh, BRD1 / RFU, MARS / Fold change vs veh, MARS / RFU, ZNF655 / Fold change vs veh, ZNF655 / RFU, FAHD1 / Fold change vs veh, FAHD1 / RFU, BDP1 / Fold change vs veh, BDP1 / RFU, LRRCC1 / Fold change vs veh, LRRCC1 / RFU, ARID1A / Fold change vs veh, ARID1A / RFU, ZNF146 / Fold change vs veh, ZNF146 / RFU, ZNF330 / Fold change vs veh, ZNF330 / RFU, GPN3 / Fold change vs veh, GPN3 / RFU, C9orf123 / Fold change vs veh, C9orf123 / RFU, N4BP2L2 / Fold change vs veh, N4BP2L2 / RFU, ARFIP1 / Fold change vs veh, ARFIP1 / RFU, FAM179B / Fold change vs veh, FAM179B / RFU, BCL10 / Fold change vs veh, BCL10 / RFU, UHRF1BP1L / Fold change vs veh, UHRF1BP1L / RFU, BET1 / Fold change vs veh, BET1 / RFU, CNOT2 / Fold change vs veh, CNOT2 / RFU, ZNF268 / Fold change vs veh, ZNF268 / Fold change vs veh, ZNF507 / RFU, DGCR2 / Fold change vs veh, DGCR2 / RFU, WDSUB1 / Fold change vs veh, WDSUB1 / Fold change vs veh, HSP90B1 /// MIR3652 / RFU, ADSS / Fold change vs veh, ADSS / RFU, GK / Fold change vs veh, GK / RFU, ZNF148 / Fold change vs veh, ZNF148 / RFU, TAF9 / Fold change vs veh, TAF9 / RFU, SLC1A5 / Fold change vs veh, SLC1A5 / RFU, SLMO2 / Fold change vs veh, SLMO2 / RFU, ABCC4 / Fold change vs veh, ABCC4 / RFU, LOC101060439 /// RAP1B / Fold change vs veh, LOC101060439 /// RAP1B / RFU, RFX7 / Fold change vs veh, RFX7 / RFU, GTPBP10 / Fold change vs veh, GTPBP10 / RFU, CNEP1R1 / Fold change vs veh, CNEP1R1 / RFU, BIVM-ERCC5 /// ERCC5 / Fold change vs veh, BIVM-ERCC5 /// ERCC5 / RFU, ILF3 / Fold change vs veh, ILF3 / RFU 11762660_at / Fold change /veh 11762660_at / RFU VCAN (11757783_s_at) / Fold change /veh VCAN (11757783_s_at) / RFU DDX43 (11728927_at) / Fold change /veh DDX43 (11728927_at) / RFU KRT8 (11758188_x_at) / Fold change /veh KRT8 (11758188_x_at) / RFU NKD1 (11759106_at) / Fold change /veh NKD1 (11759106_at) / RFU SRD5A1 (11742802_a_at) / Fold change /veh SRD5A1 (11742802_a_at) / RFU TPSAB1 /// TPSB2 (11721975_s_at) / Fold change /veh TPSAB1 /// TPSB2 (11721975_s_at) / RFU GSTM3 (11746129_a_at) / Fold change /veh GSTM3 (11746129_a_at) / RFU IL23R (11737362_x_at) / Fold change /veh IL23R (11737362_x_at) / RFU TMEM51 (11727254_a_at) / Fold change /veh TMEM51 (11727254_a_at) / RFU PIWIL2 (11732686_x_at) / Fold change /veh PIWIL2 (11732686_x_at) / RFU ORM1 (11744905_x_at) / Fold change /veh ORM1 (11744905_x_at) / RFU CCDC152 (11743942_at) / Fold change /veh CCDC152 (11743942_at) / RFU ECM1 (11717891_a_at) / Fold change /veh ECM1 (11717891_a_at) / RFU IL23R (11748794_a_at) / Fold change /veh IL23R (11748794_a_at) / RFU TNFAIP8L3 (11732012_x_at) / Fold change /veh TNFAIP8L3 (11732012_x_at) / RFU MBOAT4 (11741988_at) / Fold change /veh MBOAT4 (11741988_at) / RFU 11764193_at / Fold change /veh 11764193_at / RFU TMEM53 (11763286_at) / Fold change /veh TMEM53 (11763286_at) / RFU MAGEB2 (11727129_at) / Fold change /veh MAGEB2 (11727129_at) / RFU TMEM200A (11744735_a_at) / Fold change /veh TMEM200A (11744735_a_at) / RFU CCDC152 (11751479_a_at) / Fold change /veh CCDC152 (11751479_a_at) / RFU FAM211A (11726209_a_at) / Fold change /veh FAM211A (11726209_a_at) / RFU RGS16 (11746705_a_at) / Fold change /veh RGS16 (11746705_a_at) / RFU VCAN (11755009_s_at) / Fold change /veh VCAN (11755009_s_at) / RFU RHOB (11743442_s_at) / Fold change /veh RHOB (11743442_s_at) / RFU RGS16 (11720943_a_at) / Fold change /veh RGS16 (11720943_a_at) / RFU RGS16 (11720944_at) / Fold change /veh RGS16 (11720944_at) / RFU, VPS4B / Fold change vs veh, VPS4B / RFU, CREB1 / Fold change vs veh, CREB1 / RFU, DNAJC13 / Fold change vs veh, DNAJC13 / RFU, GNAQ / Fold change vs veh, GNAQ / RFU, CDK5R1 / Fold change vs veh, CDK5R1 / RFU, ZRANB3 / Fold change vs veh, ZRANB3 / RFU, CUL4A / Fold change vs veh, CUL4A / RFU, CCNY / Fold change vs veh, CCNY / RFU, UFL1 / Fold change vs veh, UFL1 / RFU, COG3 / Fold change vs veh, COG3 / RFU, DIAPH2 / Fold change vs veh, DIAPH2 / RFU, SKA2 / Fold change vs veh, SKA2 / RFU, AFF3 / Fold change vs veh, AFF3 / RFU, LMF1 / Fold change vs veh, LMF1 / RFU, IPO11 / Fold change vs veh, IPO11 / RFU, DFFB / Fold change vs veh, DFFB / RFU, FOXP1 / Fold change vs veh, FOXP1 / RFU, CARD8 / Fold change vs veh, CARD8 / RFU, STRN3 / Fold change vs veh, STRN3 / RFU, ADK / Fold change vs veh, ADK / RFU, RASSF2 / Fold change vs veh, RASSF2 / RFU, WIPF1 / Fold change vs veh, WIPF1 / RFU, LARP1B / Fold change vs veh, LARP1B / RFU, RASA1 / Fold change vs veh, RASA1 / RFU, RB1 / Fold change vs veh, RB1 / RFU, PPFIA1 / Fold change vs veh, PPFIA1 / RFU, MAT2A / Fold change vs veh, MAT2A / RFU, CCT5 / Fold change vs veh, CCT5 / RFU, WDR92 / Fold change vs veh, WDR92 / RFU, CUX1 / Fold change vs veh, CUX1 / RFU, TTC7A / Fold change vs veh, TTC7A / RFU, TMEM135 / Fold change vs veh, TMEM135 / RFU, DEPTOR / Fold change vs veh, DEPTOR / RFU, CPM / Fold change vs veh, CPM / RFU, DNAJB6 / Fold change vs veh, DNAJB6 / RFU, CACNA2D3 / Fold change vs veh, CACNA2D3 / RFU, DTX4 / Fold change vs veh, DTX4 / RFU, TFCP2 / Fold change vs veh, TFCP2 / RFU, GMCL1 /// GMCL1P1 / Fold change vs veh, GMCL1 /// GMCL1P1 / RFU, AEBP2 / Fold change vs veh, AEBP2 / RFU, SNHG1 /// SNORD22 /// SNORD25 /// SNORD26 /// SNORD27 /// SNORD28 /// SNORD29 /// SNORD31 / Fold change vs veh, SNHG1 /// SNORD22 /// SNORD25 /// SNORD26 /// SNORD27 /// SNORD28 /// SNORD29 /// SNORD31 / Fold change (Aza/veh), C12orf56 (ProbeSet 11735607_a_at) / Fold change (ACY-1035/veh), C12orf56 (ProbeSet 11735607_a_at) / Fold change (Aza/veh), FGFR1OP (ProbeSet 11751329_s_at) / Fold change (ACY-1035/veh), FGFR1OP (ProbeSet 11751329_s_at) / Fold change (Aza/veh), VPS36 (ProbeSet 11739960_a_at) / Fold change (ACY-1035/veh), VPS36 (ProbeSet 11739960_a_at) / RFU SYPL1 (11715823_x_at) / Fold change /veh SYPL1 (11715823_x_at) / RFU IGFBP7 (11715501_s_at) / Fold change /veh IGFBP7 (11715501_s_at) / RFU REEP3 (11722064_at) / Fold change /veh REEP3 (11722064_at) / RFU IGLL1 (11728026_x_at) / Fold change /veh IGLL1 (11728026_x_at): dose or concentration left out as unconfirmed", "conditions": "ProbeSet 11752001_a_at; LIST D"}
{"smiles": "Nc1ccc(-c2cccs2)cc1NC(=O)c1ccc2c(c1)cc(C1CC1)n2CCN1CCOCC1", "note": "[ACY-1035]", "values": [{"measurement": "Fold change vs veh, CUL4A", "value": 0.87}]}
